Source: patent US20220184008A1, “MODULATORS OF INTRACELLULAR CHLORIDE CONCENTRATION” (FONDAZIONE ISTITUTO ITALIANO DI TECNOLOGIA, priority 2019, published 2022)

Tests used:
Ts65Dn mice = assay: Cognitive impairment tests in Ts65Dn mice (object location, object recognition, T-maze, fear conditioning); format: in vivo; conditions: i.p. 0.2 mg/kg, one week; four cognitive tests
Text: FIG. 4: In vivo assessment of the efficacy of the selected NKCC1 inhibitor in Ts65Dn mice. (a) Quantification of the discrimination index in mice treated with vehicle (WT, n=14, Ts65Dn, n=10;) or 3.17 (WT, n=14, Ts65Dn, n=11;) ***P<0.001; two-way ANOVA Tukey's post hoc test. (b) Quantification of the discrimination index in mice treated with vehicle (WT, n=14, Ts65Dn, n=10;) or 3.17 (WT, n=14, Ts65Dn, n=11) *P<0.05, **P<0.01 two-way ANOVA Tukey's post hoc test. (c) Quantification of the correct choices in mice treated with vehicle (WT, n=14, Ts65Dn, n=10;) or 3.17 (WT, n=14, Ts65Dn, n=11;) ***P<0.001; two-way ANOVA Tukey's post hoc test. (d) Quantification of the freezing response in mice treated with vehicle (WT, n=14, Ts65Dn, n=10;) or 3.17 (WT, n=14, Ts65Dn, n=11;) *P<0.05, **P<0.01 two-way ANOVA Tukey's post hoc test.
The efficacy of compound 3.17 in rescuing cognitive impairment in four different cognitive tests in Ts65Dn mice (FIG. 4) has been evaluated. Adult Ts65Dn mice and their WT littermates were treated (2 months old) for one week with 3.17 (i.p. 0.2 mg/kg) or its vehicle. For the following three weeks, the animals were tested in four different tasks assessing memory and cognition: a) novel object location task (Deidda, G. et al. Reversing excitatory GABAAR signaling restores synaptic plasticity and memory in a mouse model of Down syndrome. […]

[1] = Solubility in aqueous buffer; format: physicochemical; conditions: PBS, pH 7.4, aqueous buffer
Protocol: FIG. 3: Assessment of drug-likeness of a selected compound, compound 3.17. a) Chemicophysical properties of bumetanide and compound 3.17 by LC-MS analysis. b) Comparison between urinary volume of WT mice (C57Bl/6N) two hours after treatment with bumetanide (0.2 mg/kg) and compound 3.17 (0.2 mg/kg). c) Assessment of urinary volume of Ts65Dn mouse model of Down syndrome and WT littermates two hours after treatment with compound 3.17 (0.2 mg/kg). Number in parenthesis: number of analyzed animals. Data represents mean±sem, and they are presented as % of the respective vehicle.
The selected NKCC1 inhibitor compound 3.17 has been evaluated for solubility in aqueous buffers, and stability in plasma and phase I metabolism in vitro (FIG. 3a).

solubility [1]: > 250 µM
SMILES: CN(C)S(=O)(=O)c1cc(C(=O)O)ccc1NCCCCCCCC(F)(F)F [Compound 3.17, 3-(dimethylsulfamoyl)-4-(8,8,8-trifluorooctylamino) benzoic acid]
cognitive performance of Ts65Dn mice (Ts65Dn mice): ameliorated
